Results: patent publication US20100216191A1, “Method for Manufacturing a Modified Peptide” (PROCOMCURE BIOTECH GMBH, priority 2007, published 2010)
“Also recorded” adds a separate entry of the source. Read-outs that look alike come from different tables or passages of the source. Where no end group is shown, it is not given here.

Assays:
GST-tagged FnbB = test: Pull-down with GST-tagged FnbB, proteins from rabbit reticulocyte translation system; format: binding, S. aureus; settings: cell-free protein translation system; GST alone as negative control
Excerpt: Recombinant proteins were produced from the isolated plasmids from the PPI-partners in a rabbit reticulocyte-based translation system and additionally in E. coli cells. The produced recombinant proteins were used for pull-down and immunoprecipitation experiments.

His-tagged ClfB protein [1] = target: T1, His-tagged ClfB protein (Staphylococcus aureus, UniProt Q99R07); settings: 5 μg spotted onto membrane, His-tag antibody detection
Procedure: 7.1. […] This peptide was also synthesized.
Peptides were spotted onto a protein binding membrane and incubated with recombinant His-tagged ClfB protein. The irreversibly bound peptides can be targeted by additionally added ClfB. Bound ClfB protein is detected by a His-tag specific antibody (see FIG. 7).

ClfB [2] = target: T2, ClfB (Staphylococcus aureus, UniProt Q99R07); format: cell-based, S. aureus; design: expressed in transfected cells; host or cells: yeast Y2H reporter strain AH109; settings: among 100 clones after two rounds of selection against ClfB
ClfB [3] = target: T2, ClfB; settings: Y2H-strain AH109, prey plasmid pGADT7
Procedure: All constituents of this mini-library are tested directly in a binary manner against ClfB. • The identified interactions between ClfB and KRT6A, KRT8, and KRT5 (cf Table 1) were used for the experiment. • The interacting KRT-genes were compared in order to identify the plasmid harbouring the shortest KRT gene-fragment from the initial Y2H-screen. […] The clone with the smallest ClfB interacting DNA-insert is called clone clb10.1 • Clone clb10.1 was used as template for primer-design. PCR-primers were designed to lead to N-terminal truncations of the resulting protein. The clb10.1 DNA-template contains a 330 base pair DNA-fragment of the gene coding region of KRT8 (corresponds to a peptide of 110 amino acids). • The first primer-pair binds 45 bp downstream of the clb10.1 DNA-template resulting in a 45 by shortened DNA-fragment after PCR (the generated PCR-product contains a gene coding sequence of 285 bp). The resulting peptide encoded from this DNA is 95 amino acids. The PCR-product was cloned into an empty Y2H-prey plasmid, pGADT7. The plasmid was sequenced and the clone was named Frag1. • The second primer pair amplifies a PCR-product, which contains a gene coding sequence of 144 bp, which corresponds to a peptide of 48 amino acids. The PCR-product was cloned into an empty Y2H-prey plasmid, pGADT7. The plasmid was sequenced and the clone was named Frag2. • The third primer pair still amplifies the same gene coding sequence of KRT8, however the 3-primed untranslated region was removed. The 3-primed untranslated region is 241 bp long and not relevant for the interaction with ClfB protein. The removal of this 241 region was achieved by using a PCR-reverse primer, which binds upstream of this region in the DNA-template of clone 10.1. The resulting peptide, when translated from this PCR-product is still 48 amino acids. The PCR-product was cloned into an empty Y2H-prey plasmid, pGADT7. The plasmid was sequenced and the clone was named Frag2-CDS. • The fourth primer pair amplifies a PCR-product of 84 bp, which when translated into a protein will correspond to a peptide of 28 amino acids. The PCR-product was cloned into an empty Y2H-prey plasmid, pGADT7. The plasmid was sequenced and the clone was named Frag2-binding domain. • The fifth primer pair amplifies a PCR-product of 78 bp; when translated into a protein this fragment will correspond to a peptide of 26 amino acids. The PCR-product was cloned into an empty Y2H-prey plasmid, pGADT7. The plasmid was sequenced and the clone was named Frag3. • After PCR, the fragments were separated by gel-electrophoresis and the DNA was extracted from the gels by a commercial gel-extraction kit. The DNA was cut by restriction enzymes and cloned into the Y2H-plasmid pGADT7. The cloning reaction was introduced by plasmid transformation into E. coli. The transformation mixture was plated out onto plasmid-selective media containing the appropriate antibiotic. Growing colonies were inoculated into liquid media containing the same antibiotic, and the E. coli liquid culture was plasmid-purified and sequenced for confirmation. • Pure plasmid DNA from all constructs (Frag1, Frag2, Frag2-CDS, Frag2-binding domain, Frag3, clb10.1 clone, as well as full-length KRT6A, full-length KRT8, and full-length KRT5) were mixed to obtain a mini-library of different shortened fragments from the same interactor of ClfB.

[4] = target: binding of GST-tagged keratin fragment to ClfB-protein (Staphylococcus aureus, UniProt Q99R07); settings: 1 μM peptide; densitometry, ImageJ
Excerpt: 7.2. […] Relative changes in pulled-down GST-tagged keratin fragment is quantified by densitometry using a flatbed scanner and the ImageJ software, provided by Wayne Rasband, National Institutes of Health. (ImageJ: http://rsb.info.nih.gov/ij/) See FIGS. 8 and 9

living S. aureus cells = test: Adhesion assay with living S. aureus cells, crystal violet, absorbance at 595 nm; format: cell-based; settings: 1 μg coated onto microwell-plates
Procedure: • All genes coding for the used recombinant proteins were cloned into the plasmid pDEST15. […] This protein served as negative control 1 • Affinity purified, recombinantly in E. coli produced GST-tagged Frag2-CDS (49 ng/μl). the amino acid sequence of Frag2-CDS is N-[…]-C (SEQ ID NO: 71) • Affinity purified, recombinantly in E. coli produced GST-tagged S. aureus protein, methionine sulfoxide reductase msrB, NCBI protein GI:54041496, was diluted to a final concentration of 30 ng/μl. This protein served as negative control 2 • Affinity purified, recombinantly in E. coli produced GST-tagged S. aureus protein, NADPH-dependent 7-cyano-7-deazaguanine reductase, NCBI protein GI:81781951, was diluted to a final concentration of 61 ng/μl. This protein served as negative control 3 • Human aortic elastin protein, 1 mg elastin was purchased from the company Elastin Products company, product number HA587 and solubilized in 1 ml H2O to get the final concentration of 1 μg/μl. This protein served as positive control 1 because elastin protein is known to bind to S. aureus. • Human fibrinogen protein was purchased from the company Enzyme Research Laboratories, product number FIB 1 3120L; […] was solubilized in 50 ml H2O to get the final concentration of 2 μg/μl. […]

[5] = target: T3, binding domain of yeast protein GAL4 (Saccharomyces cerevisiae, UniProt P04386); test: Y2H specificity test against binding domain of GAL4; format: cell-based; settings: Y2H-strain AH109
T3 construct: expressed in transfected cells; host or cells: yeast Y2H reporter strain AH109

[6] = target: T4, Frag2-binding domain peptide (Homo sapiens, UniProt P05787); test: Y2H test of peptide binding to the same peptide (homodimerization, stickiness); format: cell-based; settings: Y2H-strain AH109
T4 construct: expressed in transfected cells; host or cells: yeast Y2H reporter strain AH109
T4 sequence (P05787 437-464 limits assumed): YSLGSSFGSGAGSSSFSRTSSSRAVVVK

[7] = target: T5, activation domain of yeast protein GAL4 (Saccharomyces cerevisiae, UniProt P04386); test: Y2H specificity test against activation domain of GAL4; format: cell-based; settings: Y2H-strain AH109
T5 construct: expressed in transfected cells; host or cells: yeast Y2H reporter strain AH109

His-tagged ClfB protein [8] = target: T1, His-tagged ClfB protein; settings: detection with anti-GST antibodies; listed as GST-tagged Keratin 8 protein fragment
Excerpt: (§1) 6.2.1. Recombinant Protein Production • The DNA-sequence coding for ClfB was cloned into a plasmid PET160 (a plasmid suitable for recombinant protein expression in E. coli and HIS-tag purification). The plasmid harbours a so-called HIS-tag, which is a DNA sequence coding for a stretch of six histidine residues. […]
(§2) 6.2.2. […] The GST-tagged peptide was purified by using a commercial GST-tag purification kit. • After several washing steps the remaining proteins are eluted from the magnetic beads • The eluted protein/peptide mixture is loaded on a SDS-page gel, separated, transferred onto a membrane, and probed with GST-tag specific antibodies and bound antibodies are detected by chemiluminescence signals on chemiluminescence films. • The following combinations of recombinant proteins/peptides were used in the pull-downs: • a) BSA+GST-tagged 48-aminoacid long peptide • b) His-tagged ClfB+GST-tagged 48-amino acid-peptide • c) Purified GST+GST-tagged 48-amino acid-peptide

BSA = BSA (Bos taurus, UniProt P02769); test: In vitro pull-down with BSA coated beads; format: binding; settings: detection with anti-GST antibodies; listed as GST-tagged peptide of 48-amino acids
Excerpt: as §1, §2

GST = target: T6, GST (Schistosoma japonicum, UniProt P08515); test: In vitro pull-down with GST coated beads; format: binding; settings: detection with anti-GST antibodies; listed as GST-tagged peptide of 48-amino acids
T6 construct: purchased
Excerpt: as §1, §2

ClfB [9] = target: T2, ClfB; settings: for Relative interaction strength to ClfB compared to the original binder: X-Gal overlay assays and growth strength on 3AT media, AH109 cells; for More beta galactosidase in comparison to the original binder: X-Gal overlay, equal numbers of cells

T1 sequence (Q99R07 45-841): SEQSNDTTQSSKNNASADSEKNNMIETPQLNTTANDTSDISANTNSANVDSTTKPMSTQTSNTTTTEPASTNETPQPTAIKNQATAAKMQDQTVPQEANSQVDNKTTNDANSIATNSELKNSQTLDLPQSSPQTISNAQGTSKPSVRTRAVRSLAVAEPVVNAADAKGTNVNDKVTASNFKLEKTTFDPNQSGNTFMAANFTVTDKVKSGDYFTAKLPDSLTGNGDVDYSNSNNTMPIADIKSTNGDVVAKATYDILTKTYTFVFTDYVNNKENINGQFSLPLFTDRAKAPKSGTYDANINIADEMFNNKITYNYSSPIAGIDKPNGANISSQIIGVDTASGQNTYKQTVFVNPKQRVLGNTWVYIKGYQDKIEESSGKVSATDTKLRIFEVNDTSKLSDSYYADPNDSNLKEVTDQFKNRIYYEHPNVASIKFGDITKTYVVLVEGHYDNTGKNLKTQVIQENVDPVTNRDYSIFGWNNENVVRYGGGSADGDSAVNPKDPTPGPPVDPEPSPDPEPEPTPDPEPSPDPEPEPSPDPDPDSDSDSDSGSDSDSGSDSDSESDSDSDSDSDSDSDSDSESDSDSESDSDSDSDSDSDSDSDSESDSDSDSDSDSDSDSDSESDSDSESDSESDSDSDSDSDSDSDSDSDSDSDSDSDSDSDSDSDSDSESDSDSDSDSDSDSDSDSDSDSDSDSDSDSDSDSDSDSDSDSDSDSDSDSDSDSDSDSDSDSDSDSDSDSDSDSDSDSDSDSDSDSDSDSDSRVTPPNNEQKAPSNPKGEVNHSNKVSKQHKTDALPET
T2 sequence (Q99R07 45-841): as above
T6 sequence (P08515 whole entry): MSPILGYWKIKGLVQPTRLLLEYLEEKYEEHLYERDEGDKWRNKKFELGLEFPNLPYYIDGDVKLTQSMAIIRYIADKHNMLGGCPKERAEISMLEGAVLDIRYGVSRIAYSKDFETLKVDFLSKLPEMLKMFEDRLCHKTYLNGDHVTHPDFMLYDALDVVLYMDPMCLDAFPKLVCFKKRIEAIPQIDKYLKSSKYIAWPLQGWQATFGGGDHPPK
binding of GST-tagged keratin fragment to ClfB-protein, sequence (Q99R07 45-841): as the sequence (Q99R07 45-841) above
T5 sequence (P04386 768-881): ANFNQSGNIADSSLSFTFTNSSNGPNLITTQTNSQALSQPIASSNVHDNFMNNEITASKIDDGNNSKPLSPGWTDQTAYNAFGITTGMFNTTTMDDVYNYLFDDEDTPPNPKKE
T3 sequence (P04386 11-38): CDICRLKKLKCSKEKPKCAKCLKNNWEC

CCT—beta: human protein interacting with FnbB, NCBI Protein GI 2559012
Co-purified with GST-tagged FnbB (GST-tagged FnbB): could be co-purified

EQRGELAIKDANAKLSELEAAL [control peptide, reference compound]
Binding of recombinant ClfB to spotted peptide (His-tagged ClfB protein [1]): no binding was detected

QELMNVKLALDIEIATYRKLLEGEESRLESGMQNMSIHTKTTSGYAGGLSSAYGGLTSPGLSYSLGSSFGSGAGSSSFSRTSSSRAVVVKKIETRDGKLVSESSDVLPK [Clone 10.1]
Identified X-times by sequencing (ClfB [2]): 8 | Interaction capable with ClfB in the Y2H-system (ClfB [3]): Yes

RAVVVKKIETRDGKLVSESSDVLPK [Frag 3]
Identified X-times by sequencing (ClfB [2]): 0 | Identified X-times by sequencing (ClfB [2]; listed as Frag3): No single clone | Interaction capable with ClfB in the Y2H-system (ClfB [3]): No

SYSLGSSFGSGAGSSSFSRTS [IPEP-21SA]
Binding of recombinant ClfB to spotted peptide (His-tagged ClfB protein [1]): could bind | Competitive inhibition of binding of GST-tagged keratin fragment to ClfB-protein [4]: ~40% | Binding to living pathogen cells (living S. aureus cells): binds strongly

TYRKLLEGEESRLESGMQNMSIHTKTTSGYAGGLSSAYGGLTSPGLSYSLGSSFGSGAGSSSFSRTSSSRAVVVKKIETRDGKLVSESSDVLPK [Frag 1]
Identified X-times by sequencing (ClfB [2]): 12 | Interaction capable with ClfB in the Y2H-system (ClfB [3]): Yes

YSLGSSFGSGAGSSSFSRTSSSRAVVVK [Frag 2-binding domain]
Interaction with the binding-domain of GAL4 protein [5]: neither interacts | Identified X-times by sequencing (ClfB [2]): 18 | Interaction of the peptide with itself [6]: does not interact with itself | Interaction with the activation domain of GAL4 protein [7]: neither interacts | Interaction capable with ClfB in the Y2H-system (ClfB [3]): Yes | Interaction capable with ClfB in the Y2H-system (ClfB [3]; listed as Frag2-binding domain): still capable of interaction; also recorded: does only interact with ClfB protein

YSLGSSFGSGAGSSSFSRTSSSRAVVVKKIETRDGKLVSESSDVLPK (also: fused to a dimerising Fc or GST (not shown)) [GST-tagged Frag2-CDS, Frag2-CDS peptide recombinantly produced in E. coli with N-terminally fused glutathione S-transferase]
Binding of recombinant ClfB to spotted peptide (His-tagged ClfB protein [1]): could bind | Binding to living pathogen cells (living S. aureus cells): binds strongly | Pulled down (co-purified) with His-tagged ClfB protein (His-tagged ClfB protein [8]): could only be pulled down when His-tagged recombinant ClfB was present | Pulled down by BSA coated beads (BSA): Neither BSA coated- nor GST coated magnetic beads could pull down; also recorded: neither a) BSA nor c) GST coated beads can pull-down | Pulled down by GST coated beads (GST): Neither BSA coated- nor GST coated magnetic beads could pull down; also recorded: neither a) BSA nor c) GST coated beads can pull-down

YSLGSSFGSGAGSSSFSRTSSSRAVVVKKIETRDGKLVSESSDVLPK [Frag 2-CDS]
Identified X-times by sequencing (ClfB [2]): 28 | Identified X-times by sequencing (ClfB [2]; listed as Frag2-CDS): 28 | Interaction capable with ClfB in the Y2H-system (ClfB [3]): Yes

YSLGSSFGSGAGSSSFSRTSSSRAVVVKKIETRDGKLVSESSDVLPK [Frag 2]
Identified X-times by sequencing (ClfB [2]): 25 | Interaction capable with ClfB in the Y2H-system (ClfB [3]): Yes

YSLGSSFGSGAGSSSLGRTSSSRAVVVK [stronger binder]
Relative interaction strength to ClfB compared to the original binder (ClfB [9]): binds with increased affinity | More beta galactosidase in comparison to the original binder (ClfB [9]): at least 50%

YSLGSSFGSGAGSSSSSRTSPSRAVVVK [more stronger binder]
Relative interaction strength to ClfB compared to the original binder (ClfB [9]): binds with increased strength | More beta galactosidase in comparison to the original binder (ClfB [9]): ≥ 100%

lysosomal sialidase NEU 1: human protein interacting with FnbB, NCBI Protein GI 30583251
Co-purified with GST-tagged FnbB (GST-tagged FnbB): could be co-purified
